In this experiment the target is T1, HIS-tagged RORγ-LBD protein (Homo sapiens, UniProt P51449).
T1 construct: made in house; host or cells: SF9 cells, baculovirus expression system; the lysate was used
T1 sequence (P51449 269-508 limits assumed): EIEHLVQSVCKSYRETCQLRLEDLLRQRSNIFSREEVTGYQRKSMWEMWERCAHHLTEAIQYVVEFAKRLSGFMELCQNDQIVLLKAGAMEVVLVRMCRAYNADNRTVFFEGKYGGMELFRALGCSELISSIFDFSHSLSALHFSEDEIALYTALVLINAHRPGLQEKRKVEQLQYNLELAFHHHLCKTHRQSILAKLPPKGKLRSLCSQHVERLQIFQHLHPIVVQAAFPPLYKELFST
Briefly: RORγ-Ligand Binding Domain (LBD) TR-FRET Assay. The experiment is classed as biochemical. The following applies: for TR-FRET Assay Max Response: upper plateau of 4-parameter fit, signal in the absence of ursolic acid or test compound set as 100; for EC50: with 2 μM RORγ antagonist ursolic acid, biotinylated SRC1 LXXLL peptide, ratio 665 nm/615 nm. The method, then: Exemplary compounds from the above Examples were tested for ability to increase RORγ activity using (i) a RORγ-Ligand Binding Domain (LBD) TR-FRET Assay, and (ii) a Gal4-RORγ Luciferase Reporter Assay in HEK-293T Cells. Assay procedures and results are described below.
Part I—Procedures for RORγ-Ligand Binding Domain TR-FRET Assay
HIS-tagged RORγ-LBD protein was expressed in SF9 cells using a baculovirus expression system. The lysate was diluted in assay buffer (50 mM Tris pH 7.0, 50 mM KCl, 1 mM EDTA, 0.1 mM DTT, 0.01% BSA) to obtain RORγ-LBD final concentration of −3 nM in a 384-well assay plate (need to titrate for each batch of protein).
A stock of biotinylated-LXXLL peptide from coactivator SRC1 (Biotin-[…]) was prepared in assay buffer and added to each well (200 nM final concentration). A solution of Europium tagged anti-HIS antibody (0.6 nM final concentration) and APC-conjugated streptavidin (30 nM final concentration) were also added to each well. RORγ antagonist ursolic acid was also included at a final concentration of 2 μM. Compounds were diluted in DMSO and further diluted in assay buffer with a final DMSO concentration at 1%.
The final assay mixture was incubated overnight at 4° C. or 2 hours at room temperature, and the fluorescence signal was measured on an Envision plate reader: (Excitation filter=340 nm; APC emission=665 nm; Europium emission=615 nm; dichroic mirror=D400/D630; delay time=100 μs, integration time=200 μs). 50% Effective concentration (EC50) values for test compounds were calculated from the quotient of the fluorescence signal at 665 nm divided by the fluorescence signal at 615 nm. The quotient of the fluorescence signals in the absence of ursolic acid or test compound is set as 100. Max Response is defined as the upper plateau in the signal as determined by line-fit using a 4-parameter logistic model in PRISM (GraphPad).

A word on the EC50: it is the concentration at which the effect is half-maximal. With `CCN(c1cccc(OCCc2ccccc2)c1)S(=O)(=O)c1cccc(C(F)(F)F)c1`, the “TR-FRET Assay Max Response” value was “** (The symbol “**” indicates a value in the range of greater than 90 to 150)” and the EC50 was above 10 µM.

As for `CCN(Cc1cccc(N(CC)S(=O)(=O)c2cccc(C(F)(F)F)c2)c1)c1ccccc1Cl`, the “TR-FRET Assay Max Response” value is listed as “** (The symbol “**” indicates a value in the range of greater than 90 to 150)” and the EC50 was 0.5 to 5 µM.

For `CCN(c1cccc(COc2ccccc2Cl)c1)S(=O)(=O)c1cccc(C(F)(F)F)c1`, the “TR-FRET Assay Max Response” value is on record as “** (The symbol “**” indicates a value in the range of greater than 90 to 150)” and the concentration for a half-maximal effect (EC50) is 0.5 to 5 µM.

With `CCN(c1cccc(CNc2ccccc2Cl)c1)S(=O)(=O)c1cccc(C(F)(F)F)c1`, the “TR-FRET Assay Max Response” value is “** (The symbol “**” indicates a value in the range of greater than 90 to 150)” and the EC50 was above 10 µM.

As to `CCN(c1cccc(CN2CCc3ccccc32)c1)S(=O)(=O)c1cccc(C(F)(F)F)c1`, the “TR-FRET Assay Max Response” value is listed as “** (The symbol “**” indicates a value in the range of greater than 90 to 150)” and the EC50 is 0.5 to 5 µM.

`CCN(c1cccc(OCc2cc(C(F)(F)F)ccc2Cl)c1)S(=O)(=O)c1cccc(C(F)(F)F)c1`: the “TR-FRET Assay Max Response” value was “*** (The symbol “***” indicates a value in the range of greater than 150 to 200)” and the EC50 was above 10 µM.

For the compound `CCN(c1cccc(OCc2ccc(Cl)cc2Cl)c1)S(=O)(=O)c1cccc(C(F)(F)F)c1`, the “TR-FRET Assay Max Response” value was “** (The symbol “**” indicates a value in the range of greater than 90 to 150)” and the EC50 was above 10 µM.

Consider `CCC(c1cccc(OCc2c(F)cccc2Cl)c1)S(=O)(=O)c1ccc(Cl)cc1` (stereo not shown), for which the “TR-FRET Assay Max Response” value was “*** (The symbol “***” indicates a value in the range of greater than 150 to 200)” and the EC50 was below 0.5 µM.

As to `CCN(c1cccc(COc2c(F)cccc2Cl)c1)S(=O)(=O)c1cccc(C(F)(F)F)c1`, the “TR-FRET Assay Max Response” value is listed as “** (The symbol “**” indicates a value in the range of greater than 90 to 150)” and the half-maximal effective concentration (EC50) was below 0.5 µM.

For the compound `CCN(c1cccc(OCc2c(F)cccc2Cl)c1)S(=O)(=O)c1cccc(C(F)(F)F)c1`, the “TR-FRET Assay Max Response” value was “**** (The symbol “****” indicates a value greater than 200)” and the EC50 is below 0.5 µM.

With `CCN(c1cccc(OC2Cc3ccccc3C2)c1)S(=O)(=O)c1cccc(C(F)(F)F)c1`, the “TR-FRET Assay Max Response” value was “*** (The symbol “***” indicates a value in the range of greater than 150 to 200)” and the EC50 is 0.5 to 5 µM.

On to `CCC(c1cccc(OCc2ccccc2)c1)S(=O)(=O)c1ccc(Cl)cc1` (stereo not shown), for which the “TR-FRET Assay Max Response” value is “* (The symbol “*” indicates a value in the range of 70 to 90)” and the concentration giving a half-maximal response (EC50) is above 10 µM.

Turning to `CCN(c1cccc(OCc2cccc(Cl)c2Cl)c1)S(=O)(=O)c1cccc(C(F)(F)F)c1`, the EC50 was above 10 µM.

Turning to `CCC(c1ccc(OCc2ccccc2)cc1)S(=O)(=O)c1ccc(Cl)cc1` (stereo not shown), the “TR-FRET Assay Max Response” value was “*** (The symbol “***” indicates a value in the range of greater than 150 to 200)” and the 50% effective concentration (EC50) lay in the range of 0.5 to 5 µM.

In the case of `CCN(c1cccc(CNC2CCCCC2)c1)S(=O)(=O)c1cccc(C(F)(F)F)c1`, the EC50 is above 10 µM.

In the case of `CCN(c1cccc(COC2(C)CCCCC2)c1)S(=O)(=O)c1cccc(C(F)(F)F)c1`, the “TR-FRET Assay Max Response” value is on record as “** (The symbol “**” indicates a value in the range of greater than 90 to 150)” and the EC50 is below 0.5 µM.

Turning to `CCN(c1cccc(OCc2ccccc2F)c1)S(=O)(=O)c1cccc(C(F)(F)F)c1`, the “TR-FRET Assay Max Response” value is on record as “*** (The symbol “***” indicates a value in the range of greater than 150 to 200)” and the half-maximal effective concentration (EC50) was below 0.5 µM.

As for `CCN(c1cccc(OCc2cccc(C(F)(F)F)c2Cl)c1)S(=O)(=O)c1cccc(C(F)(F)F)c1`, the EC50 is above 10 µM.

Turning to `CCN(c1cccc(C(C)Oc2c(F)cccc2Cl)c1)S(=O)(=O)c1cccc(C(F)(F)F)c1` (stereo not shown), the “TR-FRET Assay Max Response” value is “** (The symbol “**” indicates a value in the range of greater than 90 to 150)” and the EC50 is below 0.5 µM.

Regarding `CCN(c1cccc(C(C)Oc2ccccc2Cl)c1)S(=O)(=O)c1cccc(C(F)(F)F)c1` (stereo not shown), the “TR-FRET Assay Max Response” value is given as “** (The symbol “**” indicates a value in the range of greater than 90 to 150)” and the concentration for a half-maximal effect (EC50) was above 10 µM.

Regarding `CCN(c1cccc(OCC2CCCCC2)c1)S(=O)(=O)c1cccc(C(F)(F)F)c1`, the “TR-FRET Assay Max Response” value is listed as “**** (The symbol “****” indicates a value greater than 200)” and the EC50 was below 0.5 µM.

As to `CCN(Cc1ccccc1Cl)c1cccc(N(CC)S(=O)(=O)c2cccc(C(F)(F)F)c2)c1`, the “TR-FRET Assay Max Response” value is “** (The symbol “**” indicates a value in the range of greater than 90 to 150)” and the EC50 was above 10 µM.

For `CCOc1nn(CC)cc1S(=O)(=O)N(CC)c1cccc(OCc2ccccc2)c1`, the EC50 is above 10 µM.

Take `CCN(c1cccc(CNCc2ccccc2Cl)c1)S(=O)(=O)c1cccc(C(F)(F)F)c1`: the “TR-FRET Assay Max Response” value is reported as “** (The symbol “**” indicates a value in the range of greater than 90 to 150)” and the half-maximal effective concentration (EC50) was above 10 µM.

In the case of `CCC(c1cccc(OCc2c(F)cccc2Cl)c1)S(=O)(=O)c1cccc(C(F)(F)F)c1` (stereo not shown), the “TR-FRET Assay Max Response” value is reported as “*** (The symbol “***” indicates a value in the range of greater than 150 to 200)” and the 50% effective concentration (EC50) is below 0.5 µM.

Regarding `CCN(c1cccc(OC2CCc3ccccc32)c1)S(=O)(=O)c1cccc(C(F)(F)F)c1` (stereo not shown), the “TR-FRET Assay Max Response” value was “**** (The symbol “****” indicates a value greater than 200)” and the 50% effective concentration (EC50) is below 0.5 µM.

As for `CCN(c1cccc(COC2CCCCC2)c1)S(=O)(=O)c1cccc(C(F)(F)F)c1`, the “TR-FRET Assay Max Response” value was “** (The symbol “**” indicates a value in the range of greater than 90 to 150)” and the 50% effective concentration (EC50) lay in the range of 0.5 to 5 µM.

For the compound `CCC(c1ccc(OCc2ccccc2)cc1)S(=O)(=O)c1cccc(C(F)(F)F)c1` (stereo not shown), the “TR-FRET Assay Max Response” value is listed as “** (The symbol “**” indicates a value in the range of greater than 90 to 150)” and the EC50 was 0.5 to 5 µM.

Turning to `CCN(c1cccc(Cn2ncc3ccccc32)c1)S(=O)(=O)c1cccc(C(F)(F)F)c1`, the “TR-FRET Assay Max Response” value is recorded as “** (The symbol “**” indicates a value in the range of greater than 90 to 150)” and the EC50 was above 10 µM.

As to `CCN(c1cccc(OCc2ccccc2)c1)S(=O)(=O)c1cccc(C(F)(F)F)c1`, the “TR-FRET Assay Max Response” value is recorded as “*** (The symbol “***” indicates a value in the range of greater than 150 to 200)” and the concentration giving a half-maximal response (EC50) was in the range of 0.5 to 5 µM.

As for `CCN(c1cccc(OC(C)c2c(F)cccc2Cl)c1)S(=O)(=O)c1cccc(C(F)(F)F)c1` (stereo not shown), the EC50 was above 10 µM.

`CCN(c1cccc(COC2CCCCC2C(F)(F)F)c1)S(=O)(=O)c1cccc(C(F)(F)F)c1` (stereo not shown): the “TR-FRET Assay Max Response” value is listed as “** (The symbol “**” indicates a value in the range of greater than 90 to 150)” and the half-maximal effective concentration (EC50) fell in the range of 0.5 to 5 µM.

As for `CCN(c1cccc(Cn2c(=O)oc3ccccc32)c1)S(=O)(=O)c1cccc(C(F)(F)F)c1`, the “TR-FRET Assay Max Response” value is recorded as “** (The symbol “**” indicates a value in the range of greater than 90 to 150)” and the EC50 was above 10 µM.

These data come from patent publication US10189777B2, “Benzenesulfonamido and related compounds for use as agonists of RORγ and the treatment of disease” (Lycera Corporation, priority 2014, dated 2019).
